Assay results reported in patent publication US9790235B2, “MK2 inhibitors and uses thereof” (Celgene CAR LLC, priority 2014, dated 2017).
Like-named read-outs stand apart in the source and are kept apart here.

Key:
MK2 = MK2 (Homo sapiens (Human), UniProt P49137)
Protocol: Aliquots of the resulting mixture (6 μL each) were diluted with 0.2% trifluoroacetic acid (TFA, 10 μL) prior to micro C4 ZipTipping directly onto the MALDI target using sinapinic acid as the desorption matrix (10 mg/ml in 0.1% TFA:acetonitrile 50:50, v/v). The centroid mass of the target protein in the control sample was compared with the centroid mass of the target protein incubated with compound. A shift in the centroid mass of the treated protein compared to the untreated protein was divided by the molecular weight of the compound. This number corresponds to the percentage of modified protein (a measure of the proportion of total target protein covalently bound to the test compound) after one hour incubation.
3 μL of magnetic Ni-NTA beads were added to the 6 μL aliquots of sample, washed, eluted with 0.2% trifluoroacetic acid (TFA, 2 μL), and spotted directly onto the MALDI target using sinapinic acid as the desorption matrix (10 mg/ml in 0.1% TFA:acetonitrile 50:50, v/v). The centroid mass of the target protein in the control sample was compared with the centroid mass of the target protein incubated with compound. A shift in the centroid mass of the treated protein compared to the untreated protein was divided by the molecular weight of the compound. This number corresponds to the percentage of modified protein (a measure of the proportion of total target protein covalently bound to the test compound) after one hour incubation.

[1] = molecular target: p38α activated, mitogen-activated protein kinase-activated protein kinase 2 (MAPKAP-K2 or MK2) enzyme (Homo sapiens (Human), UniProt P49137); assay: MK2 Omnia continuous-read kinase assay for compound potency; assay type: biochemical; conditions: [MK-2]=0.4 nM, [ATP]=10 μM, [ST3-Sox]=10 μM; read-out: MK2 IC50
Source text: Mitogen-Activated Protein Kinase-Activated Protein Kinase 2 Omnia® Assay for Compound Potency Assessment:
The protocol below describes a continuous-read kinase assay optimized to measure potency of compounds against p38α activated, mitogen-activated protein kinase-activated protein kinase 2 (MAPKAP-K2 or MK2) enzyme. Further details of this assay are described by Life Technologies, Carlsbad, Calif. on their website at the following URL: http://tools.lifetechnologies.com/content/sfs/manuals/omnia_kinase_assay_man.pdf.
[Reagent] used: • [MK-2]=0.4 nM, • [ATP]=10 μM and • [ST3-Sox]=10 μM (ATP^appKM=10 μM)
Kinase reactions were started with the addition of 45 μL of the ATP-peptide substrate S/T3-Sox mix and monitored every 71 seconds for 120 minutes at λex360/λem485 in a Synergy H4 plate reader from BioTek (Winooski, Vt.) at room temperature.
Background signals from the no enzyme control wells were subtracted from all progress curves. The initial linear portions of the net progress curves were fit according to a linear equation to yield the slope and percentage of inhibition (% inhibition) at each compound concentration. The net progress curves obtained during the first two hours of reactions were also fit according to an ascending single-exponential equation (Eq. 1) to yield kobs values at each compound concentration. Plots of % Inhibition versus inhibitor concentrations were fit according to a dose-response equation (Eq. 2) to generate IC50 and Hill slope values while plots of kobs versus inhibitor concentration were fit according to Equation 3 (Eq. 3) to generate apparent kinact/KI values using the GraphPad PRISM software (Version 6.00; GraphPad San Diego, Calif.).
[formula] where F is the fluorescence intensity from the plate reader, V0 is a constant reflecting the relationship between the instrument readout and product concentration, t is time, e is Euler's number, and kobs is the observed inactivation rate constant.
[formula] where % Inhibition is percentage of inhibition, IC50 is half maximal inhibitory concentration, [I] is the inhibitor concentration, and n is the Hill slope.

[2] = percentage of modified protein after 60 minutes at room temperature, 10-fold excess of compound, MALDI (I-1 to I-50), magnetic bead MALDI (I-51 to I-129)
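Wherever Mass Modification is given: covalent binding read from centroid mass shift of compound-treated versus untreated intact MK2, shift divided by compound molecular weight, giving fraction of total protein bound.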

Sequence of MK2 (P49137 whole entry): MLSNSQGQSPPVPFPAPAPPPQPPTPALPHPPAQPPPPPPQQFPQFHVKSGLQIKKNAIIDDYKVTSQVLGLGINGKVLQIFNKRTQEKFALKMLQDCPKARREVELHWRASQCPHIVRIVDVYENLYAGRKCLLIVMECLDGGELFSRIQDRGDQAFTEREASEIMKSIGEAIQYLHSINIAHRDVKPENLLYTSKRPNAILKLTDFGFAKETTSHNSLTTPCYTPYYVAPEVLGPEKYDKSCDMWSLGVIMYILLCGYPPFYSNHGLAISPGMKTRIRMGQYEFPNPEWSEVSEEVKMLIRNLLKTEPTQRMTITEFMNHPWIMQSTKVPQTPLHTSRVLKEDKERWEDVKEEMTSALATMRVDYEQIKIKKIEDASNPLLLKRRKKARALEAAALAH
Sequence of p38α activated, mitogen-activated protein kinase-activated protein kinase 2 (MAPKAP-K2 or MK2) enzyme (P49137 whole entry): as above

C[C@@H]1CNc2c(sc3ccc4nc(Nc5cc(F)nc(F)c5)ccc4c23)C(=O)N1 [I-6, (R)-3-((2,6-difluoropyridin-4-yl)amino)-10-methyl-9,10,11,12-tetrahydro-8H-[1,4]diazepino[5′,6′:4,5]thieno[3,2-f]quinolin-8-one]
Mass Modification (MK2; [2]): G (mass modification ≦30%)

CCOC(=O)c1cnc(SC)nc1Nc1ccc2c(ccc3sc4c(c32)NC[C@@H](C)NC4=O)n1 [I-12, (R)-ethyl 4-((10-methyl-8-oxo-9,10,11,12-tetrahydro-8H-[1,4]diazepino[5′,6′:4,5]thieno[3,2-f]quinolin-3-yl)amino)-2-(methylthio)pyrimidine-5-carboxylate]
IC50 [1]: 501 to 999 nM
Mass Modification (MK2): G (key: E: mass modification of ≧70%; F: mass modification of 31-69%; G: mass modification ≦30%)

C[C@@H]1CNc2c(sc3ccc4nc(Nc5nc(Cl)ncc5C(=O)NC5CCN(C)CC5)ccc4c23)C(=O)N1 [I-19, (R)-2-chloro-4-((10-methyl-8-oxo-9,10,11,12-tetrahydro-8H-[1,4]diazepino-[5′,6′:4,5]thieno[3,2-f]quinolin-3-yl)amino)-N-(1-methylpiperidin-4-yl)pyrimidine-5-carboxamide]
Mass Modification (MK2): G (key: E: mass modification of ≧70%; F: mass modification of 31-69%; G: mass modification ≦30%)

CCOC(=O)c1cnc(Nc2ccc3c(ccc4sc5c(c43)NC[C@@H](C)NC5=O)n2)nc1Cl [I-23, (R)-ethyl 4-chloro-2-((10-methyl-8-oxo-9,10,11,12-tetrahydro-8H-[1, 4]diazepino[5′,6′:4,5]thieno[3,2-f]quinolin-3-yl)amino)pyrimidine-5-carboxylate]
IC50 [1]: < 100 nM
Mass Modification (MK2; [2]): G (mass modification ≦30%)

C[C@@H]1CNc2c(sc3ccc4nc(Nc5cc(F)nc(OCCN(C)C)n5)ccc4c23)C(=O)N1 [I-32, (R)-3-((2-(2-(dimethylamino)ethoxy)-6-fluoropyrimidin-4-yl)amino)-10-methyl-9,10,11,12-tetrahydro-8H-[1,4]diazepino[5′,6′:4,5]thieno[3,2-f]quinolin-8-one]
Mass Modification (MK2; [2]): F (mass modification of 31-69%)

C[C@@H]1CNc2c(sc3ccc4nc(Nc5cc(F)nc(OC6COC6)n5)ccc4c23)C(=O)N1 [I-37, (R)-3-((6-fluoro-2-(oxetan-3-yloxy)pyrimidin-4-yl)amino)-10-methyl-9,10,11,12-tetrahydro-8H-[1,4]diazepino[5′,6′:4,5]thieno[3,2-f]quinolin-8-one]
Mass Modification (MK2; [2]): F (mass modification of 31-69%)

C[C@@H]1CNc2c(sc3ccc4nc(Nc5cc(F)nc(OCC6(C)COC6)n5)ccc4c23)C(=O)N1 [I-39, (R)-3-((6-fluoro-2-((3-methyloxetan-3-yl)methoxy)pyrimidin-4-yl)amino)-10-methyl-9,10,11,12-tetrahydro-8H-[1,4]diazepino[5′,6′:4,5]thieno[3,2-f]quinolin-8-one]
Mass Modification (MK2; [2]): G (mass modification ≦30%)

C[C@@H]1CNc2c(sc3ccc4nc(Nc5cc(F)nc(O[C@H]6CCOC6)n5)ccc4c23)C(=O)N1 [I-40, (R)-3-((6-fluoro-2-(((S)-tetrahydrofuran-3-yl)oxy)pyrimidin-4-yl)amino)-10-methyl-9,10,11,12-tetrahydro-8H-[1,4]diazepino[5′,6′:4,5]thieno[3,2-f]quinolin-8-one]
Mass Modification (MK2; [2]): G (mass modification ≦30%)

C[C@@H]1CNc2c(sc3ccc4nc(Nc5cc(F)nc(O[C@@H]6CCOC6)n5)ccc4c23)C(=O)N1 [I-41, (R)-3-((6-fluor-2-(((R)-tetrahydrofuran-3-yl)oxy)pyrimidin-4-yl)amino)-10-methyl-9,10,11,12-tetrahydro-8H-[1,4]diazepino[5′,6′:4,5]thieno[3,2-f]quinolin-8-one]
Mass Modification (MK2; [2]): G (mass modification ≦30%)

C[C@@H]1CNc2c(sc3ccc4nc(Nc5nc(F)cc(OCC6(C)COC6)n5)ccc4c23)C(=O)N1 [I-43, (R)-3-((4-fluoro-6-((3-methyloxetan-3-yl)methoxy)pyrimidin-2-yl)amino)-10-methyl-9,10,11,12-tetrahydro-8H-[1,4]diazepino[5′,6′:4,5]thieno[3,2-f]quinolin-8-one]
Mass Modification (MK2; [2]): G (mass modification ≦30%)

C[C@@H]1CNc2c(sc3ccc4nc(Nc5nc(F)cc(O[C@@H]6CCOC6)n5)ccc4c23)C(=O)N1 [I-46, (R)-3-((4-fluoro-6-(((R)-tetrahydrofuran-3-yl)oxy)pyrimidin-2-yl)amino)-10-methyl-9,10,11,12-tetrahydro-8H-[1,4]diazepino[5′,6′:4,5]thieno[3,2-f]quinolin-8-one]
Mass Modification (MK2; [2]): F (mass modification of 31-69%)

C[C@@H]1CNc2c(sc3ccc4nc(Nc5cc(F)nc(O[C@@H]6CCN(C)C6)n5)ccc4c23)C(=O)N1 [I-49, (R)-3-((6-fluor-2-(((R)-1-methylpyrrolidin-3-yl)oxy)pyrimidin-4-yl)amino)-10-methyl-9,10,11,12-tetrahydro-8H-[1,4]diazepino[5′,6′:4,5]thieno[3,2-f]quinolin-8-one]
Mass Modification (MK2; [2]): G (mass modification ≦30%)

C[C@@H]1CNc2c(sc3ccc4nc(Nc5nc(F)cc(O[C@H]6CCOC6)n5)ccc4c23)C(=O)N1 [I-50, (R)-3-((4-fluoro-6-(((S)-tetrahydrofuran-3-yl)oxy)pyrimidin-2-yl)amino)-10-methyl-9,10,11,12-tetrahydro-8H-[1,4]diazepino[5′,6′:4,5]thieno[3,2-f]quinolin-8-one]
Mass Modification (MK2; [2]): F (mass modification of 31-69%)

COCCOc1cc(Cl)nc(Nc2ccc3c(ccc4sc5c(c43)NC[C@@H](C)NC5=O)n2)n1 [I-69, (R)-3-((4-chloro-6-(2-methoxyethoxy)pyrimidin-2-yl)amino)-10-methyl-9,10,11,12-tetrahydro-8H-[1,4]diazepino[5′,6′:4,5]thieno[3,2-f]quinolin-8-one]
IC50 [1]: < 100 nM
Mass Modification (MK2; [2]): G (mass modification ≦30%)

C[C@@H]1CNc2c(sc3ccc4nc(Oc5nc(Cl)nc(N6CCC(F)(F)C6)n5)ccc4c23)C(=O)N1 [I-77, (R)-3-((4-chloro-6-(3,3-difluoropyrrolidin-1-yl)-1,3,5-triazin-2-yl)oxy)-10-methyl-9,10,11,12-tetrahydro-8H-[1,4]diazepino[5′,6′:4,5]thieno[3,2-f]quinolin-8-one]
Mass Modification (MK2; [2]): E (mass modification of ≧70%)

C[C@@H]1CNc2c(sc3ccc4nc(Oc5nc(Cl)nc(N6CCCC(F)(F)C6)n5)ccc4c23)C(=O)N1 [I-78, (R)-3-((4-chloro-6-(3,3-difluoropiperidin-1-yl)-1,3,5-triazin-2-yl)oxy)-10-methyl-9,10,11,12-tetrahydro-8H-[1,4]diazepino[5′,6′:4,5]thieno[3,2-f]quinolin-8-one]
Mass Modification (MK2; [2]): E (mass modification of ≧70%)

CC(C)CN(Cc1cnc(Cl)nc1Oc1ccc2c(ccc3sc4c(c32)NC[C@@H](C)NC4=O)n1)CC(C)C [I-88, (R)-3-((2-chloro-5-((diisobutylamino)methyl)pyrimidin-4-yl)oxy)-10-methyl-9,10,11,12-tetrahydro-8H-[1,4]diazepino[5′,6′:4,5]thieno[3,2-f]quinolin-8-one]
IC50 [1]: > 1000 nM
Mass Modification (MK2; [2]): F (mass modification of 31-69%)

C[C@@H]1CNc2c(sc3ccc4nc(Oc5nc(Cl)ncc5CNC(C)(C)C)ccc4c23)C(=O)N1 [I-102, (R)-3-((5-((tert-butylamino)methyl)-2-chloropyrimidin-4-yl)oxy)-10-methyl-9,10,11,12-tetrahydro-8H-[1,4]diazepino[5′,6′:4,5]thieno[3,2-f]quinolin-8-one]
Mass Modification (MK2; [2]): E (mass modification of ≧70%)

C[C@@H]1CNc2c(sc3ccc4nc(Oc5nc(Cl)nc6c5CCCC6)ccc4c23)C(=O)N1 [I-109, (R)-3-((2-chloro-5,6,7,8-tetrahydroquinazolin-4-yl)oxy)-10-methyl-9,10,11,12-tetrahydro-8H-[1,4]diazepino[5′,6′:4,5]thieno[3,2-f]quinolin-8-one]
IC50 [1]: 101 to 500 nM
